The values below come from patent US20140120083A1, “TREATMENT OF CANCERS USING PI3 KINASE ISOFORM MODULATORS” (INFINITY PHARMACEUTICALS, INC., priority 2012, published 2014).

Test [1] has as its target PI3K δ (Homo sapiens, UniProt O00329). The test can be described thus: In vitro IC50, PI3K δ. Format: biochemical. Set-up: purchased Upstate. From the text: (§1) An exemplary system is PI 3-Kinase (human) HTRF™ Assay from Upstate.
In test [2] the target is T1, PI3K γ (Homo sapiens, UniProt P48736).
T1 construct: purchased Sigma
T1 sequence (P48736 whole entry): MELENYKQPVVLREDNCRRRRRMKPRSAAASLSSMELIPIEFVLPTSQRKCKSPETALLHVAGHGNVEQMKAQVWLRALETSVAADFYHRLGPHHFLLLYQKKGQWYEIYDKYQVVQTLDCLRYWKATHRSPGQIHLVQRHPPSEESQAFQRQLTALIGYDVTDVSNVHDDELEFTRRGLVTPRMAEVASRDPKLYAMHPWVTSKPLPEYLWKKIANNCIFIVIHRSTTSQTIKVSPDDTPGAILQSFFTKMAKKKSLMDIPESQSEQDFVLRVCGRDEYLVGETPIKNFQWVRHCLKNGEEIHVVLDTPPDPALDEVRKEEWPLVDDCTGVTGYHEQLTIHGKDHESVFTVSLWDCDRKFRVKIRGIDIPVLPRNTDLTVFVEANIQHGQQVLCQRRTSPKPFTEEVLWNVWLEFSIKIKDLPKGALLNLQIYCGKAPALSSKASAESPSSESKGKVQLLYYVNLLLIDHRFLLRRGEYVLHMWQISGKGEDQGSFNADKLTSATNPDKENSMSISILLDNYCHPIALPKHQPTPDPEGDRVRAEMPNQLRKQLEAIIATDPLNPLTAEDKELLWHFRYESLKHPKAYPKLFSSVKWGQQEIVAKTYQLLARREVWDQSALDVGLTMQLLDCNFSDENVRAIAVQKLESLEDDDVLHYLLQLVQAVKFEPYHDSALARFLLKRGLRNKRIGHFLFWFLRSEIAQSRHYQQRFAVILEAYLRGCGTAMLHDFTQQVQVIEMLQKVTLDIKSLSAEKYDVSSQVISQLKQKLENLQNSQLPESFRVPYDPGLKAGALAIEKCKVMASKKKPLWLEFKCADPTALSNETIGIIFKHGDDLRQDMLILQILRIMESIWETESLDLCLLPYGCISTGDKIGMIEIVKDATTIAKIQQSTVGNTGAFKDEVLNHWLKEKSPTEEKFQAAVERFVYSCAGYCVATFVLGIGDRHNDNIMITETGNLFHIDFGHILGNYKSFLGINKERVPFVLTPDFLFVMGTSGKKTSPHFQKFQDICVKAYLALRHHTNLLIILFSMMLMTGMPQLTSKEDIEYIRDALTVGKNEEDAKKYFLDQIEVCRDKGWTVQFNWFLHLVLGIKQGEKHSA
The test can be described thus: In vitro IC50, PI3K γ. Format: biochemical.
Excerpt: as §1

Sequence of PI3K δ (O00329 whole entry): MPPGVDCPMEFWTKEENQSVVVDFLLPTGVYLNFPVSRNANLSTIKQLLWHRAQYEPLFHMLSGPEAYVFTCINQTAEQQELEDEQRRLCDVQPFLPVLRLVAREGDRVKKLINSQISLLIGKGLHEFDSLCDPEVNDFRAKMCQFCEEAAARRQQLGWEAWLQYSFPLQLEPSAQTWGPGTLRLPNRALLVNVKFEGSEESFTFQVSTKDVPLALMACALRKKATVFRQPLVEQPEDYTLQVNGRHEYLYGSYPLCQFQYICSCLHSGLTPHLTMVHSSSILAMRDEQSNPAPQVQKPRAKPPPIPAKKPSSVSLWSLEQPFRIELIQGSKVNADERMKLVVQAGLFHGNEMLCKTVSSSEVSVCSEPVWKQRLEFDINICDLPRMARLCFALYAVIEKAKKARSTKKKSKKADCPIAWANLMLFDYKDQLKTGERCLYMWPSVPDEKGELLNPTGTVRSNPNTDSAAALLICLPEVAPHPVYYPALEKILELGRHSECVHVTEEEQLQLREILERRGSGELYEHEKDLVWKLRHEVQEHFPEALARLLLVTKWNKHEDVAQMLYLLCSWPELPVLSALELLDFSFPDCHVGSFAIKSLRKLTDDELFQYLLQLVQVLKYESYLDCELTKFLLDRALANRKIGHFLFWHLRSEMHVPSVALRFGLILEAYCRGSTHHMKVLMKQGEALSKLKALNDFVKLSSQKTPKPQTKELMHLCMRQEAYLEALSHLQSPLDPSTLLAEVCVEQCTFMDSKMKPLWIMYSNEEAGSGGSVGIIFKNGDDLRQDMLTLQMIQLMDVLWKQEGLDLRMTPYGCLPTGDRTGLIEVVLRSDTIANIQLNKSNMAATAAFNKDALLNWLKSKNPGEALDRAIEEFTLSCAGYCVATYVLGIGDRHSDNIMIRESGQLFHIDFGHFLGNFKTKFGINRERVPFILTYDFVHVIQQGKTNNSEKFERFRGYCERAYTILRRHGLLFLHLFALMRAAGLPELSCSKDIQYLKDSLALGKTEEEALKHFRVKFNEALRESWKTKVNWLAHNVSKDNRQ
Sequence of PI3K δ (P27986 whole entry partner): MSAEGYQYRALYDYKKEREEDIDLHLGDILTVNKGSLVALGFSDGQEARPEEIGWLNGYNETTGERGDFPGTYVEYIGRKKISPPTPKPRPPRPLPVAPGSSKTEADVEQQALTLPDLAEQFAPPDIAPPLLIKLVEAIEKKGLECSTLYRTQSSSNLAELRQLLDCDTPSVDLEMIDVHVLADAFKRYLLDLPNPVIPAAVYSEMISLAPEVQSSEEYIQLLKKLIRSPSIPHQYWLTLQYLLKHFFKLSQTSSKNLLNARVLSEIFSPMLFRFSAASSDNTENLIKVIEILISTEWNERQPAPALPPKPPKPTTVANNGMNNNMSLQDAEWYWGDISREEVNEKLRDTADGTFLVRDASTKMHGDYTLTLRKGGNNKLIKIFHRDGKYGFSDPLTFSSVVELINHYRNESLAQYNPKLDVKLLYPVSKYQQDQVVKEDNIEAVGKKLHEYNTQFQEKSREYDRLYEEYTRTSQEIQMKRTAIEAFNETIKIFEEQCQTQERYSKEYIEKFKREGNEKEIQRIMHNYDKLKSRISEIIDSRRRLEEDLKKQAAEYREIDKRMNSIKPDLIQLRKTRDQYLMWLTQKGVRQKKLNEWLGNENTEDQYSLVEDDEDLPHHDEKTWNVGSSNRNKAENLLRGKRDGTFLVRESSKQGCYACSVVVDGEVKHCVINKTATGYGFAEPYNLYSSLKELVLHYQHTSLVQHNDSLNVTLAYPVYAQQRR

Broadly, the IC50 is the concentration that gives 50% inhibition. Lower therefore signals greater potency. `Cc1cccc2cc(Cn3nc(-c4cccc(O)c4)c4c(N)ncnc43)n(C)c(=O)c12` [Compound 124] showed an IC50 in test [1] below 100 nM.
On to `CNC(=O)c1nn(Cc2cc3cccc(C)c3c(=O)n2-c2ccccc2C)c2ncnc(N)c12` [Compound 305], for which the IC50 in test [1] and in test [2] was below 10000 nM throughout.
Regarding `Cc1cccc2cc(Cn3cnc4c(N)ncnc43)n(-c3ccccc3F)c(=O)c12` [Compound 1], the IC50 was below 10000 nM in test [1] and above 10000 nM in test [2].
The compound `Cc1cccc2cc(Cn3nc(-c4cc(O)cc(F)c4)c4c(N)ncnc43)n(C)c(=O)c12` [Compound 125] yielded an IC50 in test [1] below 100 nM.
On to `CC(C)n1c(Cn2nc(-c3cccc(O)c3)c3c(N)ncnc32)cc2cccc(Cl)c2c1=O` [Compound 137], for which, in test [1], the IC50 was below 100 nM.
Take `CC(C)n1c(Cn2nc(I)c3c(N)ncnc32)cc2cccc(F)c2c1=O` [Compound 117]: the IC50 in test [1] was below 10000 nM.
In the case of `Cc1ccccc1-n1c(Cn2nc(C(=O)O)c3c(N)ncnc32)cc2cccc(C)c2c1=O` [Compound 297], in test [1], the IC50 is below 1000 nM.
In turn, `CC(Nc1ncnc2[nH]cnc12)c1cc2ccccc2c(=O)n1C1CCN(C)CC1` (stereo not drawn) [Compound 225] registered an IC50 in test [1] below 1000 nM.
`Nc1ncnc2c1c(-c1cccc(O)c1)nn2Cc1cc2cccc(F)c2c(=O)n1-c1ccccc1F` [Compound 143] gave an IC50 in test [1] below 1000 nM.
On to `CC(C)n1c(Cn2nc(I)c3c(N)ncnc32)cc2ccccc2c1=O` [Compound 129], for which the IC50 in test [1] was below 10000 nM.
`CC(C)n1c(Cn2nc(-c3cccc(O)c3)c3c(N)ncnc32)cc2ccccc2c1=O` [Compound 135]: the IC50 in test [1] is below 100 nM.
Regarding `CNC(=O)c1cccc(-c2nn(Cc3cc4cccc(C)c4c(=O)n3-c3ccccc3C)c3ncnc(N)c23)c1` [Compound 120], in test [1], the IC50 was below 10000 nM.
Regarding `Cc1cccc2cc(Cn3nc(I)c4c(N)ncnc43)n(-c3ccccc3F)c(=O)c12` [Compound 2], the IC50 in test [1] is below 100 nM; in test [2], below 1000 nM.
For the compound `Cc1cccc2cc(C(C)Nc3ncnc4[nH]cnc34)n(CCN3CCCC3)c(=O)c12` (stereo not drawn) [Compound 233], the IC50 in test [1] was below 100 nM; in test [2], above 10000 nM.
As for `Cc1cccc2cc(Cn3nc(C#CC4CC4)c4c(N)ncnc43)n(-c3ccccc3F)c(=O)c12` [Compound 4], the IC50 was below 1000 nM in test [1] and above 10000 nM in test [2].
As to `Nc1ncnc2c1c(I)nn2Cc1cc2cccc(Cl)c2c(=O)n1C1CC1` [Compound 139], the IC50 in test [1] is below 100 nM.
For the compound `CCc1nn(Cc2cc3cccc(C)c3c(=O)n2-c2ccccc2)c2ncnc(N)c12` [Compound 303], the IC50 in test [1] was below 100 nM; in test [2], below 10000 nM.
`Nc1ncnc2c1c(-c1cc(O)cc(F)c1)nn2Cc1cc2cccc(F)c2c(=O)n1-c1ccccc1F` [Compound 144] displayed an IC50 in test [1] below 100 nM.
Regarding `Cc1ccccc1-n1c(Cn2nc(-c3ccc(CN)cc3)c3c(N)ncnc32)cc2cccc(C)c2c1=O` [Compound 118], the IC50 in test [1] is below 10000 nM.
For `Cc1cccc2cc(Cn3nc(-c4cn[nH]c4)c4c(N)ncnc43)n(C3CCN(C)CC3)c(=O)c12` [Compound 226], the IC50 in test [1] was below 1000 nM.
The compound `CC(C)n1c(Cn2nc(-c3cc(O)cc(F)c3)c3c(N)ncnc32)cc2cccc(Cl)c2c1=O` [Compound 138] had an IC50 in test [1] below 100 nM.
Same read-out and setting: under `Cc1cccc2cc(Cn3nc(-c4cc(O)cc(F)c4)c4c(N)ncnc43)n(C3CCOCC3)c(=O)c12` [Compound 128] stands below 100 nM.
As to `Nc1ncnc2c1c(-c1cccc(O)c1)nn2Cc1cc2cccc(Cl)c2c(=O)n1C1CC1` [Compound 141], the IC50 in test [1] is below 100 nM.
In turn, `CCn1c(Cn2nc(-c3cccc(O)c3)c3c(N)ncnc32)cc2cccc(C)c2c1=O` [Compound 126] showed a 50% inhibitory concentration (IC50) in test [1] below 100 nM.
On the same count and under the same terms, under `CC(C)n1c(Cn2nc(-c3cc(O)cc(F)c3)c3c(N)ncnc32)cc2cccc(F)c2c1=O` [Compound 134] stands below 100 nM; under `CC(C)n1c(Cn2nc(-c3cc(O)cc(F)c3)c3c(N)ncnc32)cc2ccccc2c1=O` [Compound 136], below 100 nM.
The same measure, in the same setting: as for `Nc1ncnc2c1c(I)nn2Cc1cc2cccc(F)c2c(=O)n1-c1ccccc1F` [Compound 132], the figure is below 10000 nM.
